The values that follow come from US10375956B2, “Herbicidally active 2-(substituted-phenyl)-cyclopentane-1,3-dione compounds and derivatives thereof” (Syngenta Limited, priority 2013, dated 2019).

Common to all, as to format: in vivo
Test [1] relates to Eleusine indica (ELEIN). Kind of test: Biological Example 3 glasshouse assay, post-emergence, various adjuvant systems. The following applies: 8 g/ha, adjuvant 0.5% v/v TEHP + 1.0% v/v AMS + 12.5% v/v IPA. As to the method:
Post-emergence foliar spray application, 200 L/ha, usually one or two replicates for the weeds (depending on application rate), and two replicates for soybean.
Standard warm conditions (tropical), in glasshouse. Specifically, the glasshouse bay conditions are 24° C./18° C. day/night; 16/8 hours light/dark; 65% humidity.
The herbicidal application takes place at the following growth stages for plants which include inter alia one or more of the following plants (usually the herbicidal application takes place on at least the following plants: DIGSA, ELEIN, SETFA, ZEAMX, GLXMA Nikko, and GLXMA TMG133, and often also either BRADC or BRAPP):
Eleusine indica (ELEIN)—growth stage 12 or 13
Each test compound is applied with one of the following adjuvant systems (all percentages are final concentrations in the aqueous spray mixture):
Adjuvant system 2: 0.5% v/v Hexamoll™ DINCH**, 1.0% v/v AMS (ammonium sulphate) and 12.5% v/v IPA (isopropyl alcohol).
Adjuvant system 3: 0.5% v/v tris-(2-ethylhexyl)phosphate (“TEHP”), 1.0% v/v AMS (ammonium sulphate) and 12.5% v/v IPA (isopropyl alcohol).
Seeds of the weed (including volunteer) plants, typically including inter alia Digitaria sanguinalis (DIGSA), Eleusine indica (ELEIN), Setaria faberi (SETFA), Zea mays (ZEAMX, corn), and sometimes also [either Brachiaria decumbens (BRADC) or Brachiaria platyphylla (BRAPP)], are sown in seed trays (troughs) containing clay loam soil (pH 7.0, 2.2% organic matter, “Trough Mix A”); and soybean seed is sown in pots containing the same soil with 3 soybean seedlings per pot. The plants are sprayed with the test herbicide when they reach the growth stages mentioned above.
The test herbicidal solutions are prepared by mixing the appropriate aliquots of the test substance(s) and one of the adjuvant systems indicated above *** in deionised water to give the desired treatment concentration.
The herbicidal application is made as a foliar spray, using a tracksprayer. Following the herbicidal application, the plants are watered twice per day for the duration of the test.
A visual assessment of the % herbicidal damage is made 7 and 14 Days After herbicide Application (DAA) (or, in a minority of cases, 7 and 15 DAA), and the results are recorded as % visual herbicidal damage where 0%=no damage to plants and 100%=plant totally killed.
Compounds A2 and A7 were tested using the 0.5% v/v Hexamoll™ DINCH™+1.0% v/v AMS+12.5% v/v IPA adjuvant system. Compounds A11, A12, A14, A20 and A21 were tested using the 0.5% v/v tris-(2-ethylhexyl)phosphate (“TEHP”)+1.0% v/v AMS+12.5% v/v IPA adjuvant system.
The percentages of herbicidal damage/plant control, at 14 Days After herbicide Application (DAA) (or, in some cases, at 15 DAA), for the Compounds tested and for some of the plants tested, were in the following percentage ranges. For the tested compounds, the phytotoxicity results shown herein are generally the average of 2 or 3 repetitions (for the grassy weeds including corn) or the average of 2 repetitions (for soybean for most of the tested compounds). However, for Compound A2 on soybean there was 1 repetion only.

Test [2] has as its system Setaria faberi (SETFA). Kind of test: Test 2 glasshouse assay (IF50 formulation, X-77), post-emergence herbicidal activity. The note with it: 360 h, 15 DAA, visual score, read-out: Post-emergence herbicidal activity (percentage phytotoxicity) SETFA; for pest or weed control at 30 g/ha: application rate 30 g/ha; for pest or weed control at 125 g/ha: application rate 125 g/ha. On the procedure:
(§1) Seeds of a variety of monocotyledonous and dicotyledonous test plants are sown in standard soil in pots. The plants are cultivated for one day (for pre-emergence) or for about 12 days (for post-emergence) under controlled conditions in a glasshouse (warm climate species at 24/18° C., cool climate species at 20/16° C., both at day/night; 16 hours light; 65% humidity).
(§2) An “instant formulation”, known as the “IF50”, containing 50 g/liter (i.e. 5% w/v) of the “technical” (i.e. unformulated) active ingredient is prepared by dissolving the active ingredient in a mixture of organic solvents and emulsifier, details of which are provided in the Table below. This IF50 is then mixed with a small, variable amount of acetone to aid dissolution, before addition of a 0.2% v/v aqueous solution of the adjuvant X-77 (which is a mixture of alkyl aryl polyoxyethylene glycols and free fatty acids in isopropanol, CAS Registry number 11097-66-8), as the aqueous diluent, to form an aqueous spray solution which contains a predetermined concentration of the active ingredient (which varies depending on the application rate of the active ingredient to the plants) and 0.2% v/v of the adjuvant X-77. This aqueous spray solution is then sprayed onto the plants, after one day's cultivation (for pre-emergence), or after about 12 days' cultivation (range=10-13 days) (for post-emergence).
(§3) The test plants are then grown on, in a glasshouse (greenhouse) under controlled conditions (warm climate species at 24/18° C., cool climate species at 20/16° C., both at day/night; 16 hours light; 65% humidity) and are watered twice daily. 15 days after application of the test herbicide (15DAA) (for post-emergence), and 20 days after application of the test herbicide (20DAA) (for pre-emergence), the test plants are evaluated visually, and an assessed percentage phytotoxicity score is given for each herbicidal application on each plant species (with 100%=total damage to plant; 0%=no damage to plant).
(§4) Warm climate (“warm season”) grassy monocotyledonous weeds: Setaria faberi (SETFA), Panicum miliaceum (PANMI), Sorghum vulgare Pers. (SORVU) (or Sorghum bicolor (L) Moench ssp. Bicolor), Digitaria sanguinalis (DIGSA), Echinochloa crus-galli (ECHCG), and Brachiaria plantaginea (BRAPL).

Test [3] has as its system Echinochloa crus-galli (ECHCG). The test is described as above. The following applies: 360 h, 15 DAA, visual score, read-out: Post-emergence herbicidal activity (percentage phytotoxicity) ECHCG; for pest or weed control at 30 g/ha: application rate 30 g/ha; for pest or weed control at 125 g/ha: application rate 125 g/ha. As to the method: as §1, §2, §3, §4
In test [4] the test system is Sorghum vulgare Pers. (SORVU). Described as above. The note with it: Sorghum bicolor, 360 h, 15 DAA, visual score, read-out: Post-emergence herbicidal activity (percentage phytotoxicity) SORVU; for pest or weed control at 30 g/ha: application rate 30 g/ha; for pest or weed control at 125 g/ha: application rate 125 g/ha. As to the method: as §1, §2, §3, §4
For test [5], the system named is Brachiaria plantaginea (BRAPL). Described as above. The note with it: Urochloa plantaginea, 360 h, 15 DAA, visual score, read-out: Post-emergence herbicidal activity (percentage phytotoxicity) BRAPL; for pest or weed control at 30 g/ha: application rate 30 g/ha; for pest or weed control at 125 g/ha: application rate 125 g/ha. On the procedure:
as §1, §2, §3, §4

In test [6] the test system is Panicum miliaceum (PANMI). Described as above. The following applies: 360 h, 15 DAA, visual score, read-out: Post-emergence herbicidal activity (percentage phytotoxicity) PANMI; for pest or weed control at 30 g/ha: application rate 30 g/ha; for pest or weed control at 125 g/ha: application rate 125 g/ha. On the procedure:
as §1, §2, §3, §4

The test system of test [7] is Digitaria sanguinalis (DIGSA). Described as above. The following applies: 360 h, 15 DAA, visual score, read-out: Post-emergence herbicidal activity (percentage phytotoxicity) DIGSA; for pest or weed control at 30 g/ha: application rate 30 g/ha; for pest or weed control at 125 g/ha: application rate 125 g/ha. On the procedure:
as §1, §2, §3, §4

For `C#CCC1CC(=O)C(c2c(Cl)cc(-c3ccc(Cl)cc3)cc2OC)C1=O` (stereo not drawn) [Compound A11, 2-[2-chloro-4-(4-chlorophenyl)-6-methoxyphenyl]-4-prop-2-ynylcyclopentane-1,3-dione], the “percentage control of Eleusine indica” value in test [1] (14 DAA) is listed as 95%. Further, the pest or weed control at 30 g/ha in test [2] worked out at 80%; in test [3], 100%; in test [4], 100%; in test [5] it was 100%; in test [6], 100%; in test [7] it was 100%. Also, the pest or weed control at 250 g/ha in test [2] (application rate 250 g/ha), in test [3] (application rate 250 g/ha), in test [4] (application rate 250 g/ha), in test [5] (application rate 250 g/ha), in test [6] (application rate 250 g/ha) and in test [7] (application rate 250 g/ha) was 100% throughout.

Consider `C#CCC1CC(=O)C(c2c(F)cc(-c3ccc(F)cc3)cc2OC)C1=O` (stereo not drawn) [Compound A20, 2-[2-fluoro-4-(4-fluorophenyl)-6-methoxyphenyl]-4-prop-2-ynylcyclopentane-1,3-dione], for which, in test [1] (14 or 15 DAA), the “percentage control of Eleusine indica” value was 15%.

As to `C#CCC1CC(=O)C(c2c(F)cc(-c3ccc(F)cc3F)cc2OC)C1=O` (stereo not drawn) [Compound A21], in test [1] (14 or 15 DAA), the “percentage control of Eleusine indica” value amounted to 25%.

Consider `C#CCC1CC(=O)C(c2c(CC)cc(C)cc2CC)C1=O` (stereo not drawn) [Compound A25, 2-(2,6-diethyl-4-methyl-phenyl)-4-(prop-2-ynyl)-cyclopentane-1,3-dione], for which the pest or weed control at 30 g/ha was found to be 90% in test [2]; 100% in test [3]; 100% in test [4]; 100% in test [5]; 100% in test [6]; 100% in test [7]. For the same compound, the pest or weed control at 125 g/ha in test [2], in test [3], in test [4], in test [5], in test [6] and in test [7] was 100% each time.

`C#CCC1CC(=O)C(c2c(Cl)cc(-c3ccc(F)c(F)c3)cc2OC)C1=O` (stereo not drawn) [Compound A13]: the pest or weed control at 30 g/ha was found to be 100% in test [2]; 100% in test [3]; 100% in test [4]; 90% in test [5]; 100% in test [6]; 100% in test [7]. Further, the pest or weed control at 125 g/ha in test [2], in test [3], in test [4], in test [5], in test [6] and in test [7] was 100% in each case.

For `C#CCC1C(=O)C(c2c(C)cc(C)cc2C)C(=O)C1CC#C` (stereo not drawn) [Compound A42], the pest or weed control at 125 g/ha in test [2] was determined as 90%; in test [3], 100%; in test [4], 80%; in test [5] it was 100%; in test [6], 100%; in test [7], 90%. Also, the pest or weed control at 500 g/ha in test [2] (application rate 500 g/ha), in test [3] (application rate 500 g/ha), in test [4] (application rate 500 g/ha), in test [5] (application rate 500 g/ha), in test [6] (application rate 500 g/ha) and in test [7] (application rate 500 g/ha) was 100% each time.
